pEC50: −log10 of the molar value.
Experiments:
mKCNQ2 = mKCNQ2 (Mus musculus, UniProt Q9Z351); experiment: KCNQ patch-clamp: two-electrode voltage clamp on Xenopus laevis oocytes injected with mKCNQ2 cRNA; assay type: cell-based; details: for Percent TEA blockage: percent inhibition relative to 5 mM TEA blockade at a membrane voltage of −40 mV, mKCNQ2 in oocytes
Description: KCNQ Patch-clamp. Frog oocytes were surgically harvested from mature Xenopus laevis that had been anesthetized with 0.15% 3-aminobenzoic acid ethyl ester (tricaine). Only late stage V and VI oocytes were selected for cRNA injection, and the overlying follicle cell layers were enzymatically removed. Each oocyte was injected with approximately 60 ng of the mKCNQ2 cRNA. Following injection, oocytes were maintained at 17° C. in ND96 medium consisting of (in mM): NaCl, 90; KCl, 1.0; CaCl2, 1.0; MgCl2, 1.0; HEPES, 5.0; (pH 7.5) and supplemented with heat-inactivated horse serum (5%) and penicillin/streptomycin (5%).
Two-electrode voltage clamp techniques were used to record membrane currents; recording commenced 3–7 days following cRNA injection (Gribkoff, V. K., et al., Mol. Pharmacol. 1996, 50(1), 206–217). For recording and compound application, oocytes were placed in a recording chamber and incubated in Modified Barth's Solution (MBS) consisting of (in mM): NaCl, 88; NaHCO3, 2.4; KCI, 1.0; HEPES, 10; MgSO4, 0.82; Ca(NO3)2, 0.33; CaCl2, 0.41; (pH 7.5). Voltage-clamp protocols consisted of a series of 4 second duration depolarizing voltage steps from a holding potential of −90 mV to a maximal potential of +40 mV in 10 mV intervals. A family of outward currents was generated under control conditions for comparison with currents elicited in the presence of an experimental compound. Control or drug solutions were continually introduced into the recording chamber using a gravity-flow system with an in-line electronic valve array. A minimum of 5 oocytes was used for each drug concentration; drug concentrations ranged from 0.001 μM to 10 μM. During a single experiment, an oocyte was exposed to as many as three drug concentrations sequentially administered for 5 minutes each. All experiments ended with a 5 minute application of TEA (5 mM), a non-selective, but effective blocker of KCNQ channels. Typically, 5 mM TEA produced a maximal blockade of outward current when measured at the −40 mV membrane voltage (94.6+/−0.5% inhibition, n=112). In this manner, all drug effects could be presented as a percentage of TEA blockade, controlling for the variable levels of channel expression from oocyte to oocyte. Table 1 discloses data for representative examples. Data are expressed as percent inhibition relative to TEA blockade at a membrane voltage of −40 mV: A>50% TEA blockage at 100 nM, B>50% TEA blockage at 1 μM, C<50% TEA blockage at 1.0 μM.

[1] = molecular target: T1, hQ23 (HEK-293 cell line stably transfected with one of the members of the KCNQ family) (Homo sapiens, UniProt O43525+O43526); experiment: Thallium flux assay for KCNQ channel blockers (FLIPR, BTC dye); assay type: cell-based; details: hQ23 cells
T1 construct: expressed in transfected cells; host or cells: HEK-293, stably transfected
T1 sequence (O43526 whole entry): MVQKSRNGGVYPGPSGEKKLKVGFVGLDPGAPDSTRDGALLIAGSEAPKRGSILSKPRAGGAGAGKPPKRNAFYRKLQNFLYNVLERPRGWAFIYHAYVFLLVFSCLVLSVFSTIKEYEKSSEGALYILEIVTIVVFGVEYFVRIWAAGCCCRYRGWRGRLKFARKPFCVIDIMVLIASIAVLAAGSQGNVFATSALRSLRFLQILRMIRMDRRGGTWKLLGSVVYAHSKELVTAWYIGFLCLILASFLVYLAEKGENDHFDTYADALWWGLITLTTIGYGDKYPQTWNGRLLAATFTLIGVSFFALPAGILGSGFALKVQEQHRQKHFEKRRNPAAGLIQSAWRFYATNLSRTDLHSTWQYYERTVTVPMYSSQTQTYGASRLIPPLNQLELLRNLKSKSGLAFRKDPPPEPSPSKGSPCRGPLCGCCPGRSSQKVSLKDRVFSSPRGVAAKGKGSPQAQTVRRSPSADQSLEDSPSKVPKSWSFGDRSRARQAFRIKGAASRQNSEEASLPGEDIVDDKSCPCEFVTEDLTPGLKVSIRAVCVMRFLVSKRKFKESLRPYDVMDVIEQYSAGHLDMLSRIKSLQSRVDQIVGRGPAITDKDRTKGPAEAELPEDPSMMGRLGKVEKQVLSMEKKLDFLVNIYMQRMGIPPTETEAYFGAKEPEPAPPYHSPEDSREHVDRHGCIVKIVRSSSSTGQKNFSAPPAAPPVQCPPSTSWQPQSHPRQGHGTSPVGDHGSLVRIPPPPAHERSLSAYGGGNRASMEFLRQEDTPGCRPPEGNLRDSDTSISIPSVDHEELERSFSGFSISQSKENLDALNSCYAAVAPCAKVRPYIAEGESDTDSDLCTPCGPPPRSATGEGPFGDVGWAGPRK
T1 sequence (O43525 whole entry): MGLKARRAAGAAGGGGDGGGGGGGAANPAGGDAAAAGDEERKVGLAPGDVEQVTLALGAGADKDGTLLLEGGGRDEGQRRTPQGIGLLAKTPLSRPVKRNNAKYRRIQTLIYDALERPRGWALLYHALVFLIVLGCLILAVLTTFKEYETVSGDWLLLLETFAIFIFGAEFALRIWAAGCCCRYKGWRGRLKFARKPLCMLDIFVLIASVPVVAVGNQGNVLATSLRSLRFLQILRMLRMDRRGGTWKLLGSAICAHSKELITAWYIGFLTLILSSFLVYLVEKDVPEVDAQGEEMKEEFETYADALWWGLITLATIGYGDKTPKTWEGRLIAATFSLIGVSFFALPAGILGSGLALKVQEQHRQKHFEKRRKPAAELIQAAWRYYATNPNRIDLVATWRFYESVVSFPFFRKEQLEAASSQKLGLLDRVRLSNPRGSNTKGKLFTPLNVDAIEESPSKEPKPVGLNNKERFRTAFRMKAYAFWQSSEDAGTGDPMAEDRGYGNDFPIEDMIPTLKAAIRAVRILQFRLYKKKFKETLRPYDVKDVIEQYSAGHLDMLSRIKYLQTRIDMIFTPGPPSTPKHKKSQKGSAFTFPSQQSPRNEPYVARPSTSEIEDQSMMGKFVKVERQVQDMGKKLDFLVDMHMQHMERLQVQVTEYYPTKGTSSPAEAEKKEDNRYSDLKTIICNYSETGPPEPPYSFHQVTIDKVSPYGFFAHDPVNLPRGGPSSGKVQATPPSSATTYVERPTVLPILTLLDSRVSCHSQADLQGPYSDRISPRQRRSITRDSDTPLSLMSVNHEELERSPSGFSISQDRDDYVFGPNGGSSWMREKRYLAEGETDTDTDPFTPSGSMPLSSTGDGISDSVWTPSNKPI
Method in brief: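 HEK-293 cells stably expressing a KCNQ member, loaded with BTC-AM (2 μM) in chloride-free buffer, pH 7.3; compounds added at 1% DMSO, then Tl2SO4 stimulus on FLIPR (488/540 nm, 60 s). Minimal active concentration set at ≥4 SD above negative control; IC50 from 10-point 1:3 series, single-site logistic fit versus the positive-control blocker.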

mKCNQ2, sequence (Q9Z351 whole entry): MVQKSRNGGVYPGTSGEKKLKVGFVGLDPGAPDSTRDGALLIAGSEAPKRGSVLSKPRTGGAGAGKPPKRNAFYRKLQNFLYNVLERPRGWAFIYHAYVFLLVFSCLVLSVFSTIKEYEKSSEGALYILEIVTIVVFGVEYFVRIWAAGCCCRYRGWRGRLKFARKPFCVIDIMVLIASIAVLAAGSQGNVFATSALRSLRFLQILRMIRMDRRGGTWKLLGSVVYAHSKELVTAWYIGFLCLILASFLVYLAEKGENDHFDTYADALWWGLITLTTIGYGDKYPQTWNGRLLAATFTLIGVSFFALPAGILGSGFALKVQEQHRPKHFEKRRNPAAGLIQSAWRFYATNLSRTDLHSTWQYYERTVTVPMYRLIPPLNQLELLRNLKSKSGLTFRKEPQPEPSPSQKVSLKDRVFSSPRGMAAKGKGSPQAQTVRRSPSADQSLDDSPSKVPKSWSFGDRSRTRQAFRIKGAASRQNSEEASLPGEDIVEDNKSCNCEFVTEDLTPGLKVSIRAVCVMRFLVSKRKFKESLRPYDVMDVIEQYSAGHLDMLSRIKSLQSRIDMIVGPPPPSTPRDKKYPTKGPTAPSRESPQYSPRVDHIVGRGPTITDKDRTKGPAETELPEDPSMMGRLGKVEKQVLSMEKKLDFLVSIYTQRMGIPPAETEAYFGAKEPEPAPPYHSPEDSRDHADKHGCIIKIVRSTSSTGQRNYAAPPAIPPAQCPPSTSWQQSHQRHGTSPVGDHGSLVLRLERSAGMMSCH

CC1CCN(c2ncc(C(=O)NC(C)c3cccnc3)c(C3(c4ccccc4)CCCC3)n2)CC1 (stereo not drawn) [Example 16, 2-(4-Methyl-piperidin-1-yl)-4-(1-phenyl-cyclopentyl)-pyrimidine-5-carboxylic acid (1-pyridin-3-yl-ethyl)-amide]
Percent TEA blockage (mKCNQ2): A (A > 50% TEA blockage at 100 nM)

CC1CCN(c2ncc(C(=O)NCc3ccc(C(F)(F)F)cc3)c(C3(c4ccccc4)CCCC3)n2)CC1 [Example 138, 5-pyrimidinecarboxamide, 2-(4-methyl-1-piperidinyl)-4-(1-phenylcyclopentyl)-N-[[4-(trifluoromethyl)phenyl]methyl]-]
pEC50 ([1]; thallium flux): 8.00
Percent TEA blockage (mKCNQ2): B (B > 50% TEA blockage at 1 μM)

CC1CCN(c2ncc(C(=O)NCc3ccc(Cl)cc3Cl)c(C3(c4ccc(Cl)cc4)CCCC3)n2)CC1 [Example 181, 5-pyrimidinecarboxamide, 4-[1-(4-chlorophenyl)cyclopentyl]-N-[(2,4-dichlorophenyl)methyl]-2-(4-methyl-1-piperidinyl)-]
pEC50 ([1]; thallium flux): 8.00
Percent TEA blockage (mKCNQ2): A (A > 50% TEA blockage at 100 nM)

CC1CCN(c2ncc(C(=O)NCc3ccc(Cl)cc3Cl)c(C3(c4ccc(F)cc4)CCCC3)n2)CC1 [Example 263, 5-pyrimidinecarboxamide, N-[(2,4-dichlorophenyl)methyl]-4-[1-(4-fluorophenyl)cyclopentyl]-2-(4-methyl-1-piperidinyl)-]
pEC50 ([1]; thallium flux assay): 7.77
Percent TEA blockage (mKCNQ2): A (A > 50% TEA blockage at 100 nM)

O=C(NCc1ccc2c(c1)OCO2)c1cnc(N2CCCC2)nc1C1(c2ccccc2)CCCCC1 [Example 299, N-(1,3-benzodioxol-5-ylmethyl)-4-[1-phenylcyclohexyl]-2-(1-pyrrolidinyl)-5-pyrimidinecarboxamide]
Percent TEA blockage (mKCNQ2): B (B > 50% TEA blockage at 1 μM)

CC[N+](CC)(CC)CC [TEA, reference compound]
maximal blockade of outward current (% inhibition) (mKCNQ2; 5 mM TEA, measured at −40 mV membrane voltage, n=112): 94.6+/−0.5%

Source: patent publication US7091202B2, “4-arylspirocycloalkyl-2-aminopyrimidine carboxamide KCNQ potassium channel modulators” (Bristol-Myers Squibb Company, priority 2004, dated 2006)
